Experimental data reported in publication PMC7534274 (Journal of Enzyme Inhibition and Medicinal Chemistry, 2020).
Like-named read-outs stand apart in the source and are kept apart here.

What was measured:
[1] = molecular target: T1, hCA IX (Homo sapiens, UniProt Q16790); experiment: stopped-flow CO2 hydrase assay; assay type: biochemical
T1 construct: gene CA9; recombinant, obtained in-house; tumour-associated isoform
Source text: stopped-flow CO2 hydrase assay on hCA IX

[2] = molecular target: T2, hCA I (Homo sapiens, UniProt P00915); experiment: stopped-flow CO2 hydrase assay; assay type: biochemical
T2 construct: gene CA1; recombinant, obtained in-house; cytosolic isoform
Source text: stopped-flow CO2 hydrase assay on hCA I

[3] = molecular target: T3, hCA VII (Homo sapiens, UniProt P43166); experiment: stopped-flow CO2 hydrase assay; assay type: biochemical; conditions: read-out: hCA I
T3 construct: gene CA7; recombinant, obtained in-house; cytosolic isoform
Source text: stopped-flow CO2 hydrase assay on hCA VII

[4] = molecular target: T4, hCA II (Homo sapiens, UniProt P00918); experiment: stopped-flow CO2 hydrase assay; assay type: biochemical; conditions: read-out: hCA I
T4 construct: gene CA2; recombinant, obtained in-house; cytosolic isoform
Source text: stopped-flow CO2 hydrase assay on hCA II

[5] = molecular target: T5, hCA XII (Homo sapiens, UniProt O43570); experiment: stopped-flow CO2 hydrase assay; assay type: biochemical; conditions: […] HEPES pH […] Na2SO4, CO2 substrate; […] h preincubation
T5 construct: gene CA12; recombinant, obtained in-house; tumour-associated isoform
Source text: (§1) stopped-flow CO2 hydrase assay on hCA XII

[6] = stopped-flow CO2 hydrase assay; assay type: biochemical, Homo sapiens; conditions: read-out: hCA I
Source text: as §1

[7] = […] HEPES pH […] Na2SO4, CO2 substrate, […] h preincubation

T3 sequence (P43166 whole entry, canonical isoform): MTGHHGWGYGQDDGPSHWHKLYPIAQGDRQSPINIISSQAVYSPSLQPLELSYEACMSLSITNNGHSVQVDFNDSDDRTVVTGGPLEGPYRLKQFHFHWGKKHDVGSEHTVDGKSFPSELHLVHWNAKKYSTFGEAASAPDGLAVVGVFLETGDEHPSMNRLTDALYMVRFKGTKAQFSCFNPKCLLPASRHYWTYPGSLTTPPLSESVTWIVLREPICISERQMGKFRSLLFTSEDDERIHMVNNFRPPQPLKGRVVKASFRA
T2 sequence (P00915 2-261): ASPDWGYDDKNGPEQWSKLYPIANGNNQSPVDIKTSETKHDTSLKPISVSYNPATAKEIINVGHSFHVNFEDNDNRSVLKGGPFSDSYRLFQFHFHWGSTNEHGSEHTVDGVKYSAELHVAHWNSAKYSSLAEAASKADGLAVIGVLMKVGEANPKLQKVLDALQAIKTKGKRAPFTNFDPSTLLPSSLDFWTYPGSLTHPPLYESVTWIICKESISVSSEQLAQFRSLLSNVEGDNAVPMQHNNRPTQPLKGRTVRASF
T5 sequence (O43570 25-354 limits assumed): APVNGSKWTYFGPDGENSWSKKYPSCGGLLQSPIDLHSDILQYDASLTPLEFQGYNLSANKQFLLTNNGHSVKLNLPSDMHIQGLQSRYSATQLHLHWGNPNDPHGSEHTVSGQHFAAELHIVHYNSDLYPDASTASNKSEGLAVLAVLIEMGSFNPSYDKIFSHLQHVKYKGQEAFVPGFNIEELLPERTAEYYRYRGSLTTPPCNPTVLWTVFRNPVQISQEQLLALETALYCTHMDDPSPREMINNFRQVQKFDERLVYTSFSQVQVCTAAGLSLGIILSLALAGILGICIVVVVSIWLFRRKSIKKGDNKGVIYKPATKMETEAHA

Ki [1, 7] [nM]	Ki [2] [nM]	Ki [3] [nM]	Ki [1] [nM]	Ki [4] [nM]	Ki [5] [nM]	Ki [6] [nM]	SMILES
23.5	> 10000	> 10000	–	–	–	–	CC(C(=O)NCCOc1ccc2oc(=O)ccc2c1)c1ccc(-c2ccccc2)c(F)c1 (centres unmarked) [compound 2, 6-substituted coumarin containing flurbiprofen]
–	–	–	296	–	–	–	NS(=O)(=O)Nc1cccc(S(=O)(=O)N2CCCC(C(=O)N3CCN(C(c4ccc(F)cc4)c4ccc(F)cc4)CC3)C2)c1 (centres unmarked) [compound 6, fluorinated benzhydryl piperazine derivative with nipecotic acid spacer (meta benzenesulfonamide)]
–	–	–	> 10000	–	–	–	NS(=O)(=O)Nc1ccccc1S(=O)(=O)N1CCCC(C(=O)N2CCN(C(c3ccccc3)c3ccccc3)CC2)C1 (centres unmarked) [compound 7, benzhydryl piperazine derivative with nipecotic acid spacer (ortho)]
–	–	–	902	–	–	–	NS(=O)(=O)Nc1ccc(S(=O)(=O)N2CCCC(C(=O)N3CCN(C(c4ccc(F)cc4)c4ccc(F)cc4)CC3)C2)cc1 (centres unmarked) [compound 9, fluorinated benzhydryl analogue of 8 (para)]
89.7	> 10000	> 10000	–	> 10000	80.9	–	O=C(Cc1ccccc1Nc1c(Cl)cccc1Cl)NCCOc1ccc2ccc(=O)oc2c1 [compound 3, 7-substituted coumarin containing diclofenac]
28.9	> 10000	> 10000	–	> 10000	92.6	–	O=C(Cc1ccccc1Nc1c(Cl)cccc1Cl)NCCOc1ccc2oc(=O)ccc2c1 [compound 1, 6-substituted coumarin containing diclofenac]
–	–	–	1410	–	–	–	NS(=O)(=O)Nc1ccc(S(=O)(=O)N2CCCC(C(=O)N3CCN(C(c4ccccc4)c4ccccc4)CC3)C2)cc1 (centres unmarked) [compound 8, benzhydryl piperazine derivative with nipecotic acid spacer (para)]
–	–	–	1020	–	–	–	NS(=O)(=O)Nc1cccc(S(=O)(=O)NCCC(=O)N2CCN(C(c3ccccc3)c3ccccc3)CC2)c1 [compound 5, benzhydryl piperazine derivative with beta-alanine spacer (meta benzenesulfonamide)]
–	> 10000	> 10000	159	> 10000	–	> 10000	CC(C(=O)NCCOc1ccc2ccc(=O)oc2c1)c1ccc(-c2ccccc2)c(F)c1 (centres unmarked) [compound 4, 7-substituted coumarin containing flurbiprofen]
